Experimental data published in patent US20250367171A1, “THERAPEUTIC OR PROPHYLACTIC AGENT FOR PERIPHERAL NEUROPATHIES” (Toray Industries, Inc., priority 2017, published 2025).

How the values were obtained:
[1] = test system: rat experimental autoimmune neuritis (EAN) model; test: Mechanical allodynia (von Frey test) in rat EAN model; type: in vivo; conditions: day 14, 3 hours after administration, vs vehicle group
Experimental: EAN model rats were prepared in a manner similar to Example 9. Further, a pseudo-induction animal was prepared by administering physiological saline (Otsuka Pharmaceutical Factory, Inc.) instead of a peptide solution for administration. The day of administration of the peptide solution for administration or physiological saline was designated as day 0 after induction of pathological conditions.
On day 14 after induction of pathological conditions, compound 1 (5 or 10 mg/kg) or a solvent thereof (water for injection) was orally administered to rats. Groups were composed of 4 groups: a pseudo-induction and solvent administration group (sham group); a pathological condition-induced and solvent administration group (vehicle group); a pathological condition-induced and compound 1 (5 mg/kg) administration group (compound 1 (5 mg/kg) group); and a pathological condition-induced and compound 1 (10 mg/kg) administration group (compound 1 (10 mg/kg) administration group).
Beneficial effects on mechanical allodynia were evaluated in a manner similar to Example 5, and this evaluation was performed at 3 hours after administration of compound 1 on day 14 after induction of pathological conditions.

[2] = test system: fetal rat dorsal root ganglion-derived established neuronal cell line ND15; test: Protective effect on cisplatin-induced cell damage (alamarBlue cell viability), simultaneous treatment; type: cell-based; conditions: ND15 cells, cisplatin 50 μM 4 hours, simultaneous treatment with compound 1 at 0.5, 5 or 50 μM
Experimental: A fetal rat dorsal root ganglion-derived established neuronal cell line ND15 was cultured in 10% FBS-containing DMEM. On the next day, the cells were cultured in 10% FBS-containing DMEM containing EC23 (10 μM, Reinner) for 8 days, for differentiation into neurons.
The medium was exchanged with DMEM/F12 medium containing cisplatin (final concentration of 50 μM) followed by 4 hours of culture, thereby inducing cell injury. Compound 1 was contained in the medium (final concentration of 0.5, 5 or 50 μM) for treatment, in a manner similar to that for cisplatin. Groups were composed of 6 groups: an untreated group, a 50 μM compound 1 treatment group (the group treated with 50 μM compound 1), a cisplatin treatment group, a cisplatin and 0.5 μM compound 1 treatment group (the group treated with cisplatin and 0.5 μM compound 1), a cisplatin and 5 μM compound 1 treatment group, and a cisplatin and 50 μM compound 1 treatment group.
For measurement of cell viability, the medium was exchanged with DMEM/F12 medium containing alamarBlue (Invitrogen), followed by 2 hours of culture, and then the absorbance at wavelength of 570 nm and the absorbance at wavelength of 595 nm were measured. Cell viability was calculated using the ratio of the absorbance at wavelength of 570 nm to the absorbance at wavelength of 595 nm and the untreated group designated as 100%.

[3] = test system: rat oxaliplatin-induced peripheral neuropathy model; test: Mechanical allodynia (von Frey test) in rat oxaliplatin-induced peripheral neuropathy model; type: in vivo; conditions: day 18 after induction, vs vehicle group
Experimental: Oxaliplatin (4 mg/kg, Elplat I.V. infusion solution […]; Yakult) was administered to SD rats (7 weeks old, male; CHARLES RIVER LABORATORIES JAPAN, INC.) in a cycle of 1 week (intraperitoneally administered twice, two consecutive days per week) for 2 or 3 weeks, thereby preparing an oxaliplatin-induced peripheral neuropathy model. As a control (pseudo-induction), a 5% glucose solution (Otsuka Pharmaceutical Factory, Inc.) was administered. The initial day of administration was designated as day 0 after induction of pathological conditions. […]
Beneficial effects on mechanical allodynia were evaluated before induction of pathological conditions and on day 18 after induction of pathological conditions (before the 1st administration of compound 1). Beneficial effects on mechanical allodynia were evaluated by von Frey test. The test method was performed according to the method described in the known literature (Chaplan et al. Journal of Neuroscience Methods, 1994, Vol. 53, p. 55-63) using von Frey filaments (North Coast Medical) so that 50% response threshold was calculated.

[4] = test system: rat cisplatin-induced peripheral neuropathy model; test: Mechanical allodynia (von Frey test) in rat cisplatin-induced peripheral neuropathy model; type: in vivo; conditions: 10 mg/kg oral single dose, day 34, 2 hours after administration, vs vehicle group
Experimental: Cisplatin (Wako Pure Chemical Industries, Ltd.) was intraperitoneally administered to SD rats (6 weeks old, male; CHARLES RIVER LABORATORIES JAPAN, INC.) intermittently twice a week (1 or 2 mg/kg) for 5 weeks, thereby preparing a cisplatin-induced peripheral neuropathy model. Cisplatin was dissolved in physiological saline to a concentration of 10 mg/mL and then administered. As a control (pseudo-induction), physiological saline was administered. The initial day of administration was designated as day 1 after induction of pathological conditions.
On day 34 after induction of pathological conditions, a solution containing compound 1 (10 mg/kg) or a solvent thereof (water for injection) was orally administered to rats. Groups were composed of 3 groups: a pseudo-induction and solvent administration group (sham group); a pathological condition-induced and solvent administration group (vehicle group); and a pathological condition-induced and compound 1 (10 mg/kg) administration group (compound 1 (10 mg/kg) group).
Beneficial effects on mechanical allodynia were evaluated in a manner similar to Example 5 and this evaluation was performed before and 2 hours after administration of compound 1 on day 34 after induction of pathological conditions.

CN(C)C1CCN(C(=O)C[C@H](O)c2nccn2C)CC1 [Compound 1, (S)-1-(4-(dimethylamino)piperidin-1-yl)-3-hydroxy-3-(1-methyl-1H-imidazol-2-yl)propan-1-one]
50% response threshold in von Frey test (mechanical allodynia) ([1]; 5 mg/kg oral single dose): Significant increases in 50% response threshold | 50% response threshold in von Frey test (mechanical allodynia) ([1]; 10 mg/kg oral single dose): Significant increases in 50% response threshold | cell viability (decrease caused by cisplatin) [2]: suppressed decrease | 50% response threshold in von Frey test (mechanical allodynia) ([3]; 3 mg/kg oral twice a day): significant increase in 50% response threshold | 50% response threshold in von Frey test (mechanical allodynia) ([3]; 10 mg/kg oral twice a day): significant increase in 50% response threshold | 50% response threshold in von Frey test (mechanical allodynia) [4]: significant increase in 50% response threshold
